{"source": "patent US6028115A", "about": "“Method for preventing sexually transmitted diseases” (priority 1999, dated 2000)", "key": {"[1]": {"system": "sheep testicular hyaluronidase", "test": "hyaluronidase inhibition (hyaluronic acid hydrolysis)", "type": "biochemical", "conditions": "pH 5.5, 10 minutes preincubation, 30 minutes at room temperature", "protocol": "Hyaluronidase activity was quantitatively determined by measuring the extent of hyaluronic acid hydrolysis (i.e., the concentration of N-acetylglucosamine-reactive material formed from enzyme activity). Reaction mixtures (0.25 ml) containing the following were prepared: test compound (variable concentration); 0.1 M sodium acetate; 0.15 M sodium chloride; pH adjusted to 5.5; 7.2 units sheep testicular hyaluronidase (Sigma, Type III; H-2251) contained in an acetate buffer; 0.3 mg/ml hyaluronic acid (Sigma, from bovine vitreous humor; H-7630). The enzyme was preincubated with the test agent (1 mg/ml for screening purposes) for 10 minutes before starting the reaction by the addition of hyaluronic acid. The enzyme reaction was determined using the method of Aronson and Davidson (J. Biol. Chem. 241 437-440 (1967)). The reaction mixture was incubated for 30 minutes at room temperature. The reaction product was determined calorimetrically with p-dimethylaminobenzaldehyde (Reissig et al., J. Biol. Chem. 217 959-966 (1965)) by measuring the absorbance at 545 nm.\nThe reversibility of the hyaluronidase was determined by evaluating enzyme activity at different levels of enzyme (Ackermann and Potter, Proc. Soc. Exp. Biol. Med. 72 1-9 (1949))."}, "[2]": {"system": "HIV-1 virus", "conditions": "general statement, no assay details; cited from earlier work"}, "[3]": {"system": "Lactobacillus gasseri", "test": "growth of normal vaginal flora bacterium in culture", "type": "cell-based", "conditions": "0.5 mg/ml, anaerobic, 37° C.", "protocol": "This example illustrates the effect of the inhibitory agents of this invention on the normal vaginal flora. Lactobacillus gasseri, which is found in normal vaginal flora, was obtained from the American Type Culture Collection (Rockville, Md.) and cultured under anaerobic conditions at 37° C. in the presence of the desired test agents. Control samples without added test agents were also run. Samples were collected at twenty minute intervals starting at 120 minutes after the start of incubation through 240 minutes. The absorbance at 550 nm was used to estimate the cell density and inhibitory effects. Nonoxynol-9 was also evaluated for comparison purposes."}, "[4]": {"system": "MT2 cells", "test": "toxicity towards host cells of the virus assays", "type": "cell-based", "conditions": "concentration ranges used in the virus assays", "protocol": "Serial dilutions of the test compounds (ranging from 0.1 μg/ml to 1.0 mg/ml) were added to HIV-1 virus such that 50 μl inoculum produced between 70 to 100 syncytia per well in untreated wells containing MT2 cells. The mHV-1 used was strain IIIs propagated in, and harvested from, a T4-lymphobastoid cell line. Each serial dilution of the test compound with virus was placed in each of three wells containing MT2 cells. The test compound alone was added to a fourth well containing MT2 cells to test for possible cytotoxicity. Triplicate virus control samples (no added test compounds but containing the equivalent amounts of the RPMI medium) were also included."}, "[5]": {"system": "bovine papillomavirus type I", "conditions": "general statement; cited from earlier work"}}, "data": [{"substance": "Nonoxynol-9", "values": [{"measurement": "IC50", "setting": "[1]", "value": "inactive"}, {"measurement": "inhibition of the enveloped virus HIV (statement)", "setting": "[2]", "value": "inhibits"}, {"measurement": "inhibition of growth of Lactobacillus gasseri", "setting": "[3]", "value": "about 60%"}, {"measurement": "toxicity towards the host cells", "setting": "[4]", "value": "did show cytotoxic effects"}, {"measurement": "inhibition of the non-enveloped papillomavirus (statement)", "setting": "[5]", "value": "not"}]}]}
